Data from US7803816B2, “MCH receptor antagonists” (Hoffmann-La Roche Inc., priority 2005, dated 2010).

The compounds below were run against T1, recombinant human MCHR1-receptors (Homo sapiens, UniProt Q99705) (assay: MCHR filter binding assay (competition binding)). Details: membranes from CHO-K1 cells expressing human MCHR1; 0.2 nM [Phe13,[125I]Tyr19]-MCH; read-out: IC50 (nM), in vitro activity (binding assay).
T1 construct: expressed in transfected cells
Outline: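 Membranes from CHO-K1 cells stably expressing human MCHR1 (2.8 μg) preincubated 15 min with competitor, then 1 h at rt with 0.2 nM [Phe13,[125I]Tyr19]-MCH in HEPES/CaCl2/BSA/phenanthroline/Triton buffer. Bound radioactivity counted after rapid filtration over PVP/BSA-treated GF/B filters.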

T1 sequence (Q99705 whole entry): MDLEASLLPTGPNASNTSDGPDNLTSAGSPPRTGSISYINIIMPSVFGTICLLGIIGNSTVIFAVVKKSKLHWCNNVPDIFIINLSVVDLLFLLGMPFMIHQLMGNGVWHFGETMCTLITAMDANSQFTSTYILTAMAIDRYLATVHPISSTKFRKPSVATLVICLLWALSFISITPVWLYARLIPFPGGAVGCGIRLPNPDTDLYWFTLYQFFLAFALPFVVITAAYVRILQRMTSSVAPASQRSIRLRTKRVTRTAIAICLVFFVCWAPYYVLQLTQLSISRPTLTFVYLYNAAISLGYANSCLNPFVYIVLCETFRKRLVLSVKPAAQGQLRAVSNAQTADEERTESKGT

| Compound | IC50 [nM] |
| --- | --- |
| CO[C@@H]1CN(CC2Cc3ccc(F)cc3C2)CC[C@H]1n1cnc2cc(C)ccc21 (stereo partly drawn) [Example 118, 1-[(3R,4R)-1-(5-Fluoro-indan-2-ylmethyl)-3-methoxy-piperidin-4-yl]-5-methyl-1H-benzoimidazole] | 200 to 5000 |
| CO[C@@H]1CN(CC2Cc3ccncc3C2)CC[C@H]1n1c(C)nc2cc(C)ccc21 (stereo partly drawn) [Example 119, 1-[(3R,4R)-1-(6,7-Dihydro-5H-[2]pyrindin-6-ylmethyl)-3-methoxy-piperidin-4-yl]-2,5-dimethyl-1H-benzoimidazole] | 20 to 200 |
| CS(=O)(=O)c1ccc2c(c1)nc(C(F)(F)F)n2C1CCN(C[C@H]2Cc3ccc(Br)cc3C2)CC1 [Example 121, 1-[1-((S)-5-Bromo-indan-2-ylmethyl)-piperidin-4-yl]-5-methanesulfonyl-2-trifluoromethyl-1H-benzoimidazole] | 20 to 200 |
| CO[C@@H]1CN(C[C@H]2Cc3ccc(Br)cc3C2)CC[C@H]1n1c(C(C)(C)O)nc2cc(C)c(F)cc21 [Example 123, 2-{1-[(3R,4R)-1-((S)-5-Bromo-indan-2-ylmethyl)-3-methoxy-piperidin-4-yl]-6-fluoro-5-methyl-1H-benzoimidazol-2-yl}-propan-2-ol] | < 20 |
| Cc1cc2nc(C(C)(C)O)n(C3CCN(C[C@H]4Cc5ccc(Br)cc5C4)CC3)c2cc1F [Example 124, 2-{1-[1-((S)-5-Bromo-indan-2-ylmethyl)-piperidin-4-yl]-6-fluoro-5-methyl-1H-benzoimidazol-2-yl}-propan-2-ol] | < 20 |
| N-(2-{2-[4-(2,5-Dimethyl-benzoimidazol-1-yl)-piperidin-1-yl]-ethyl}-indan-5-yl)-isobutyramide [Example 58] | 200 to 5000 |
| N-{(R)-2-[(3R,4R)-4-(2,5-Dimethyl-benzoimidazol-1-yl)-3-methoxy-piperidine-1-carbonyl]-indan-5-yl}-isobutyramide [Example 57] | 200 to 5000 |
| {(R)-2-[4-(2-tert-Butyl-5-methyl-benzoimidazol-1-yl)-piperidin-1-ylmethyl]-indan-5-yl}-methyl-amine [Example 56] | 200 to 5000 |
